Test results from patent US9441012B2, “Fluorinated epoxyketone-based compounds and uses thereof as proteasome inhibitors” (FLUORINOV PHARMA INC., priority 2012, dated 2016).

Legend:
Assay in all cases: NCI 60 human tumor cell line screen (SRB)
Type in all cases: cell-based
[1] = system: OVCAR-8; details: OVCAR-8 (Ovarian Cancer); 48 h
Procedure, shortened: (§1)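 Cells plated 24 h before dosing, with time-zero plates TCA-fixed at drug addition; five concentrations (10-fold or ½-log dilutions) added and incubated 48 h at 37 °C, 5% CO2. Adherent cells fixed with 10% TCA, stained with 0.4% SRB, absorbance read at 515 nm; GI50, TGI and LC50 derived from percentage growth versus time zero and control.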

[2] = system: ACHN; details: ACHN (Renal Cancer); 48 h
Procedure, shortened: as §1

[3] = system: KM12; details: KM12 (Colon Cancer); 48 h
Procedure, shortened: as §1

[4] = system: HCT-116; details: HCT-116 (Colon Cancer); 48 h
Procedure, shortened: as §1

[5] = system: K-562; details: K-562 (Leukemia); 48 h
Procedure, shortened: as §1

[6] = system: UACC-257; details: UACC-257 (Melanoma); 48 h
Procedure, shortened: as §1

[7] = system: UO-31; details: UO-31 (Renal Cancer); 48 h
Procedure, shortened: as §1

[8] = system: LOX IMVI; details: LOX IMVI (Melanoma); 48 h
Procedure, shortened: as §1

[9] = system: SNB-75; details: SNB-75 (CNS Cancer); 48 h
Procedure, shortened: as §1

[10] = system: SK-MEL-28; details: SK-MEL-28 (Melanoma); 48 h
Procedure, shortened: as §1

[11] = system: NCI-H23; details: NCI-H23 (Non-Small Cell Lung Cancer); 48 h
Procedure, shortened: as §1

[12] = system: SF-539; details: SF-539 (CNS Cancer); 48 h
Procedure, shortened: as §1

Structure (SMILES) | Log10GI50 [1] | Log10LC50 [1] | Log10TGI50 [1] | Log10GI50 [2] | Log10LC50 [2] | Log10TGI50 [2] | Log10GI50 [3] | Log10LC50 [3] | Log10TGI50 [3] | Log10GI50 [4] | Log10LC50 [4] | Log10TGI50 [4] | Log10GI50 [5] | Log10LC50 [5] | Log10TGI50 [5] | Log10GI50 [6] | Log10LC50 [6] | Log10TGI50 [6] | Log10GI50 [7] | Log10LC50 [7] | other results
C[C@]1(C(=O)[C@H](Cc2ccccc2)NC(=O)[C@H](COC(F)F)NC(=O)[C@H](COC(F)F)NC(=O)CN2CCOCC2)CO1 [Example 26, (S)-N-{(S)-1-[(S)-1-Benzyl-2-((R)-2-methyl-oxiranyl)-2-oxo-ethylcarbamoyl]-2-difluoromethoxyethyl}-3-difluoromethoxy-2-(2-morpholin-4-yl-acetylamino)-propio-namide] | −7.32 | >−4.00 | −6.41 | −7.01 | >−4.00 | >−4.00 | −7.72 | −7.06 | −7.39 | −7.70 | −6.55 | −7.30 | −7.41 | >−4.00 | >−4.00 | −7.18 | >−4.00 | −6.32 | −6.62 | −5.17 | Log10TGI50 [7]: −5.95; Log10GI50 [8]: −7.73; Log10LC50 [8]: −7.10; Log10TGI50 [8]: −7.42; Log10GI50 [9]: −7.71; Log10LC50 [9]: −6.35; Log10TGI50 [9]: −7.24; Log10GI50 [10]: −7.38; Log10LC50 [10]: −4.82; Log10TGI50 [10]: −6.69; Log10GI50 [11]: −7.62; Log10LC50 [11]: −5.64; Log10TGI50 [11]: −7.13; Log10GI50 [12]: −7.63; Log10LC50 [12]: −6.48; Log10TGI50 [12]: −7.26
C[C@]1(C(=O)[C@H](Cc2ccccc2)NC(=O)[C@H](Cc2ccccc2)NC(=O)[C@H](COC(F)F)NC(=O)CN2CCOCC2)CO1 [Example 29] | −6.59 | >−4.00 | >−4.00 | −6.59 | >−4.00 | >−4.00 | −7.35 | −6.27 | −6.77 | −7.46 | >−4.00 | −5.91 | −7.00 | >−4.00 | >−4.00 | −6.81 | >−4.00 | −6.00 | −6.46 | −4.62 | Log10TGI50 [7]: −5.71; Log10GI50 [8]: −7.50; Log10LC50 [8]: −6.35; Log10TGI50 [8]: −6.90; Log10GI50 [9]: −6.83; Log10LC50 [9]: −5.96; Log10TGI50 [9]: −6.41; Log10GI50 [10]: −7.13; Log10LC50 [10]: >−4.00; Log10TGI50 [10]: −6.34; Log10GI50 [11]: −7.21; Log10LC50 [11]: >−4.00; Log10TGI50 [11]: −5.55; Log10GI50 [12]: −7.39; Log10LC50 [12]: −4.49; Log10TGI50 [12]: −6.76
Cc1ncc(C(=O)N[C@@H](COC(F)F)C(=O)N[C@@H](COC(F)F)C(=O)N[C@@H](Cc2ccccc2)C(=O)[C@@]2(C)CO2)s1 [Example 1, 2-methyl-thiazole-5-carboxylic acid ((S)-1-{(S)-1-[(S)-1-benzyl-2-((R)-2-methyloxiranyl)-2-oxo-ethylcarbamoyl]-2-difluoromethoxyethylcarbamoyl}-2-difluoromethoxyethyl)-amide] | −5.80 | >−4.00 | >−4.00 | −6.53 | >−4.00 | −4.81 | −6.88 | −6.10 | −6.49 | −7.32 | −6.17 | −6.71 | −6.50 | >−4.00 | >−4.00 | −6.87 | >−4.00 | −6.20 | −5.84 | −4.59 | Log10TGI50 [7]: −5.32; Log10GI50 [8]: −6.96; Log10LC50 [8]: −6.16; Log10TGI50 [8]: −6.56; Log10GI50 [9]: −6.81; Log10LC50 [9]: >−4.00; Log10TGI50 [9]: −6.24; Log10GI50 [10]: −6.85; Log10LC50 [10]: −4.69; Log10TGI50 [10]: −6.12; Log10GI50 [11]: −6.85; Log10LC50 [11]: −5.27; Log10TGI50 [11]: −5.92; Log10GI50 [12]: −7.15; Log10LC50 [12]: −4.27; Log10TGI50 [12]: −6.44
CC(C)C[C@H](NC(=O)[C@H](Cc1ccccc1)NC(=O)[C@H](COC(F)F)NC(=O)CN1CCOCC1)C(=O)[C@@]1(C)CO1 [Example 25, (2S)-2-[[(2S)-3-(difluoromethoxy)-2-[(2-morpholinoacetyl)amino]propanoyl]amino]-N-[(1S)-3-methyl-1-[(2R)-2-methyloxirane-2-carbonyl]butyl]-3-phenyl-propanamide] | −7.32 | >−4.00 | −6.41 | −7.01 | >−4.00 | >−4.00 | −7.72 | −7.06 | −7.39 | −7.70 | −6.55 | −7.30 | −7.41 | >−4.00 | >−4.00 | −7.18 | >−4.00 | −6.32 | −6.62 | −5.17 | Log10TGI50 [7]: −5.95; Log10GI50 [8]: −7.73; Log10LC50 [8]: −7.10; Log10TGI50 [8]: −7.42; Log10GI50 [9]: −7.71; Log10LC50 [9]: −6.35; Log10TGI50 [9]: −7.24; Log10GI50 [10]: −7.38; Log10LC50 [10]: −4.82; Log10TGI50 [10]: −6.69; Log10GI50 [11]: −7.62; Log10LC50 [11]: −5.64; Log10TGI50 [11]: −7.13; Log10GI50 [12]: −7.63; Log10LC50 [12]: −6.48; Log10TGI50 [12]: −7.26
